In patent publication US20140370320A1, “WOOD PRESERVATIVE” (Arch Wood Protection Pty Ltd, priority 2011, published 2014):

Key:
[1] = tested on: decay of Radiata pine sapwood panels (field exposure, Hawaii); test: Hawaiian field trial, flat panel test on treated radiata pine sapwood panels
Description: Radiata pine sapwood panels (200×70×25 mm) were treated with various preservatives and exposed on racks at 45°, using a method generally described as the “flat panel test” (Reference: Australasian Wood Preservation Committee, Protocols for Assessment of Wood Preservatives, March 2007 Revision, pp. 32). Untreated controls, solvent-treated controls and panels treated with reference preservatives (e.g., CCA) were also included in this field test. Note: All formulations contained the insecticide permethrin at a concentration sufficient to deliver approximately 0.02% m/m active in the treated panels. After approximately three years outdoor exposure in Hawaii, the specimens were rated using a typical 0 to 10 rating system (e.g., Evaluation Standard […], AWPA Book of Standards, 2010, American Wood Protection Association, Birmingham, Ala.), where 7 is the lowest score where the specimen is deemed still to be serviceable.

[2] = tested on: Coniophora olivacea; test: Laboratory fungal bioassay (Example 6), mass loss of treated, leached radiata pine sapwood; format: cell-based
Description: (§1) The bioassay was carried out in accordance with recognised methods (see, Protocols for the Assessment of Wood Preservatives, Australasian Wood Preservation Committee, March 2007 Revision, Ensis, Clayton).
(§2) Radiata pine sapwood (20×20×10 mm) specimens were treated with various preservative formulations. After drying the specimens were saturated with water and leached in a shaking water-bath at 35° C. for seven days, with daily changes of water. After leaching, the specimens were vacuum oven dried, before being sterilised in readiness for the fungal bioassay. The bioassay was carried out in accordance with standard laboratory techniques, by an independent research provider.
(§3) Mass loss was used to determine the effectiveness of a preservative treatment. […] Decay is deemed to have been prevented if the mass loss is less than 3%.
Some basidiomycete decay fungi are more tolerant to azoles that others. In this bioassay, a selection of brown rot fungi were chosen. One of those chosen, Coniophora olivacea, is relatively resistant to azoles.

[3] = tested on: Fomitopsis lilacinogilva; test: as above; format: cell-based
Description: as §1, §2, §3
Fomitopsis lilacinogilva is a wood-rotting bracket fungus common in many places of Gondwanaland origin. It is found on logs, stumps, and some outdoor wooden constructions. It forms fans, shelves, pads or crusts, to 100 mm across, is hairy, crusted above, zoned pinkish and brownish. The results against Fomitopsis lilacinogilva were less spectacular. Azole/zinc 1:2 gave 10% mass loss; 1:1 gave 15.9% mass loss; and azoles alone gave 19.9% mass loss versus the control (71.5% mass loss).

[4] = retention 0.1% m/m (as Zn metal)
[5] = retention 0.2% m/m (as Zn metal)
[6] = retention 0.3% m/m (as Zn metal)

Substance	Comment (decay state of panels) ([1]; retention 0.11% m/m Cu, approx. three years outdoor exposure in Hawaii, permethrin approx. 0.02% m/m)	Minimum effective retention to prevent decay, as copper ([1]; three year inspection, Hawaii, expressed as copper) [% m/m]	C. olivacea Mass Loss (%) [2, 4] [%]	C. olivacea Mass Loss (%) [2, 5] [%]	C. olivacea Mass Loss (%) [2, 6] [%]	F. lilacinogilva Mass Loss (%) [3, 4] [%]	F. lilacinogilva Mass Loss (%) [3, 5] [%]	F. lilacinogilva Mass Loss (%) [3, 6] [%]
copper naphthenate	Heavily decayed	> 0.11	–	–	–	–	–	–
zinc naphthenate [ZnN]	–	–	50.5	42.8	28.4	65.8	60.2	53.5
